The record followed here is patent publication US20260035643A1, “PHYSIOLOGIC AIRWAY MUCOSA AND PARENCHYMA BIOREACTOR AND EX VIVO WHOLE LUNG MODEL OF CYSTIC FIBROSIS FOR DISEASE MODELING AND THERAPEUTIC SCREENING” (The Trustees of Columbia University in the City of New York, priority 2023, published 2026).

The test system of assay [1] is tight junctions (TJs) of the airway epithelium. The settings on record: rat trachea lumen, 10 mM EDTA for 30 min, vs native.
Text: Quantification of airway epithelium integrity via bioimpedance measurement: To investigate the biophysical integrity of the airway epithelium nondestructively (FIG. 16), we created a platform that allowed quantification of the bioelectrical impedance (bioimpedance) of the airway tissue (FIG. 16A-B). This platform utilizes four electrode probes to measure the electrical properties of the tissue (FIG. 16C). During measurements, alternating electrical current (AC) at various frequencies (20 Hz-135 kHz) and 100 μA of magnitude were injected into the tissue using two current carrying electrodes (CC1 and CC2), while two voltage pick-up electrodes (PU1 and PU2) measured the potential distribution (FIG. 16C). The data were analyzed using the Cole model that describes the biological tissue as a combination of a resistor (R) and a constant phase element (CPE) (FIG. 16D, i).
Another assay relates to human lungs. The assay can be described thus: Xenogeneic cross-circulation support of human lungs with porcine host. The settings on record: added to the immunosuppressive therapy, human lungs on xenogeneic cross-circulation. An excerpt:
Preliminary Results: We support human lungs utilizing EVLP and a xenogeneic cross-circulation platform. […] With the addition of cobra venom factor to the immunosuppressive therapy, the risk of acute rejection was mitigated.

Consider `O=C(O)CN(CCN(CC(=O)O)CC(=O)O)CC(=O)O` [EDTA, ethylenediaminetetraacetic acid], for which the “bioimpedance of treated airway tissue” value in assay [1] is listed as “reduced impedance”. On to cobra venom factor, for which, in the assay on human lungs, the “risk of acute rejection” value is “mitigated”.
